The results in this text go back to US7569550B2, “14 and 15 membered ring compounds” (Glaxo Group Limited, priority 2003, dated 2009).

Counter-ions that a name gives are not always drawn. Like-named read-outs stand apart in the source and are kept apart here.

Test in all cases: MIC, standard broth dilution method in microtitre
Common to all, as to type: cell-based
A general note: In broth dilution the organism is exposed to a series of concentrations in liquid medium.

For one assay, the system named is H. influenzae ATCC 49247. The settings on record: Haemophilus influenzae, ATCC49247. The method, then: (§1) Using a standard broth dilution method in microtitre, compounds were tested for antibacterial activity. The compounds in the above examples gave minimum inhibitory concentrations (MICs) less than 1 microgram per millilitre against erythromycin-sensitive and erythromycin-resistant strains of Streptococcus pneumoniae and Streptococcus pyogenes.
(§2) In addition, the MIC (μg/ml) of test compounds against various organisms was determined including:
(§3) S. aureus Smith ATCC 13709, S. pneumoniae SP030, S. pyogenes 3565, E. faecalis ATCC 29212, H. influenzae ATCC 49247, M. catarrhalis ATCC 23246.

Assay [1] relates to M. catarrhalis ATCC 23246. The conditions noted are these: Moraxella catarrhalis, ATCC23246. The protocol: as §1, §2, §3
The subject of assay [2] is erythromycin resistant strains of Streptococcus pneumoniae. The method, then:
as §1

The subject of assay [3] is erythromycin resistant strains of Streptococcus pyogenes. The method, then: as §1
The test system of the next assay is E. faecalis ATCC 29212. The conditions noted are these: Enterococcus faecalis, ATCC29212. The protocol: as §1, §2, §3
Assay [4] concerns S. aureus Smith ATCC 13709. The conditions noted are these: Staphylococcus aureus, ATCC13709. The protocol: as §1, §2, §3
For another assay, the system named is S. pneumoniae SP030. The conditions noted are these: Streptococcus pneumoniae. The method, then: as §1, §2, §3
Another assay has as its system S. pyogenes 3565. The conditions noted are these: Streptococcus pyogenes. The method, then: as §1, §2, §3
[5] abbreviates: H. influenzae ATCC 49247, read-out: MIC.

As to `CC[C@@H]1OC(=O)[C@H](C)[C@H](O[C@@H]2C[C@](C)(OC)[C@H](OCCCNCCSc3ccc4c(c3)c(=O)c(C(=O)O)cn4CC)[C@H](C)O2)[C@@H](C)[C@H](O[C@H]2O[C@@H](C)C[C@@H](N(C)C)[C@H]2O)[C@](C)(OC)C[C@H](C)C(=O)[C@H](C)[C@H]2OC(=O)O[C@@]12C` [Example 4, 4″-O-{3-[2-(3-Carboxy-1-ethyl-4-oxo-1,4-dihydro-quinolin-6-ylsulfanyl)-ethylamino]-propyl}-6-O-methyl-erythromycin A 11,12-carbonate bisformate], the MIC was at most 4 µg/mL in the assay with H. influenzae ATCC 49247 (setting [5]), at most 4 µg/mL in assay [1], at most 1 µg/mL in assay [2] and at most 1 µg/mL in assay [3].
In the case of `CC[C@H]1OC(=O)[C@H](C)[C@@H](O[C@H]2C[C@@](C)(OC)[C@@H](OCCCN(C)CCOc3cc4c5c(c3)c(=O)c(C(=O)O)cn5CCC4)[C@H](C)O2)[C@H](C)[C@@H](O[C@@H]2O[C@H](C)C[C@H](N(C)C)[C@H]2O)[C@](C)(OC)C[C@@H](C)C(=O)[C@@H](C)[C@H]2NC(=O)O[C@@]21C` [Example 28, 4″-O-{3-[[2-(2-Carboxy-1-oxo-6,7-dihydro-1H,5H-pyrido[3,2,1-ij]quinolin-9-yloxy)-ethyl]-methylamino]-propyl}-6-O-methyl-11-desoxy-11-(R)-amino-erythromycin A 11,12-carbamate formate], the MIC against E. faecalis ATCC 29212 was at most 1 µg/mL; in the assay on H. influenzae ATCC 49247 (setting [5]), at most 4 µg/mL; in assay [1], at most 4 µg/mL; in assay [4], at most 1 µg/mL; in the assay with S. pneumoniae SP030, at most 1 µg/mL; against S. pyogenes 3565, at most 1 µg/mL. In addition, the MIC in assay [2] and in assay [3] was at most 1 µg/mL throughout.
In the case of `CC[C@@H]1OC(=O)[C@H](C)[C@H](O[C@@H]2C[C@](C)(OC)[C@H](OCCCN(C)CCNc3nc4c(cc3F)c(=O)c(C(=O)O)cn4CC)[C@H](C)O2)[C@@H](C)[C@H](O[C@H]2O[C@@H](C)C[C@@H](N(C)C)[C@H]2O)[C@](C)(OC)C[C@H](C)C(=O)[C@H](C)[C@H]2OC(=O)O[C@@]12C` [Example 15], the MIC against E. faecalis ATCC 29212 is at most 1 µg/mL; with H. influenzae ATCC 49247 (setting [5]) it was at most 4 µg/mL; in assay [1] it was at most 4 µg/mL; in assay [4], at most 1 µg/mL; against S. pneumoniae SP030 it was at most 1 µg/mL; in the assay on S. pyogenes 3565, at most 1 µg/mL. Also, the MIC in assay [2] and in assay [3] was at most 1 µg/mL in each case.
Turning to `CC[C@@H]1OC(=O)[C@H](C)[C@H](O[C@H]2C[C@](C)(OC)[C@@H](OCCN(C)CCNc3cc4c(cc3F)c(=O)c(C(=O)O)cn4C3CC3)[C@@H](C)O2)[C@@H](C)[C@H](O[C@H]2O[C@@H](C)C[C@@H](N(C)C)[C@H]2O)[C@](C)(OC)C[C@H](C)C(=O)[C@H](C)[C@H]2OC(=O)O[C@@]12C` [Example 1, 4″-O-(2-{[2-(3-Carboxy-1-cyclopropyl-6-fluoro-4-oxo-1,4-dihydro-quinolin-7-ylamino)-ethyl]-methylamino}-ethyl)-6-O-methyl-erythromycin A 11,12-carbonate bis trifluoroacetate], the MIC against E. faecalis ATCC 29212 was at most 1 µg/mL; with H. influenzae ATCC 49247, at most 4 µg/mL; in assay [1], at most 4 µg/mL; in assay [4] it was at most 1 µg/mL; against S. pneumoniae SP030, at most 1 µg/mL; against S. pyogenes 3565, at most 1 µg/mL. Also, the MIC in assay [2] and in assay [3] was at most 1 µg/mL throughout.
Turning to `CC[C@@H]1OC(=O)[C@H](C)[C@H](O[C@@H]2C[C@](C)(OC)[C@H](OCCCOCCCc3ccc4c(c3)c(=O)c(C(=O)O)cn4CC)[C@H](C)O2)[C@@H](C)[C@H](O[C@H]2O[C@@H](C)C[C@@H](N(C)C)[C@H]2O)[C@](C)(OC)C[C@H](C)C(=O)[C@H](C)[C@H](O)[C@@]1(C)O` [Example 20, 4″-O-{3-[3-(3-Carboxy-1-ethyl-4-oxo-1,4-dihydro-quinolin-6-yl)-propoxy]-propyl}-6-O-methyl-erythromycin A monoformate], the MIC with E. faecalis ATCC 29212 is at most 1 µg/mL; with H. influenzae ATCC 49247 (setting [5]) it was at most 4 µg/mL; in assay [1], at most 4 µg/mL; in assay [4] it was at most 1 µg/mL; with S. pneumoniae SP030 it was at most 1 µg/mL; in the assay on S. pyogenes 3565, at most 1 µg/mL. The MIC in assay [2] and in assay [3] was at most 1 µg/mL each time.
As for `CC[C@H]1OC(=O)[C@H](C)[C@@H](O[C@H]2C[C@@](C)(OC)[C@@H](OCCCNCCCc3cc4c5c(c3)c(=O)c(C(=O)O)cn5CCC4)[C@H](C)O2)[C@H](C)[C@@H](O[C@@H]2O[C@H](C)C[C@H](N(C)C)[C@H]2O)[C@](C)(OC)C[C@@H](C)C(=O)[C@@H](C)[C@H]2NC(=O)O[C@@]21C` [Example 25, 4″-O-{3-[3-(2-Carboxy-1-oxo-6,7-dihydro-1H,5H-pyrido[3,2,1-ij]quinolin-9-yl)-propylamino]-propyl}-6-O-methyl-11-desoxy-11-(R)-amino-erythromycin A 11,12-carbamate formate], the MIC (in the assay with E. faecalis ATCC 29212; in assay [4]; in the assay with S. pneumoniae SP030; in the assay on S. pyogenes 3565; in assay [2]; in assay [3]) was at most 1 µg/mL in each case.
With `CC[C@@H]1OC(=O)[C@H](C)[C@H](O[C@@H]2C[C@](C)(OC)[C@H](OCCCNCCCc3ccc4c(c3)c(=O)c(C(=O)O)cn4CC)[C@H](C)O2)[C@@H](C)[C@H](O[C@H]2O[C@@H](C)C[C@@H](N(C)C)[C@H]2O)[C@](C)(OC)C[C@H](C)C(=O)[C@H](C)[C@H]2N(C)C(=O)O[C@@]12C` [Example 7, 4″-O-{3-[2-(3-Carboxy-1-ethyl-4-oxo-1,4-dihydro-quinolin-6-yl)-propylamino]-propyl}-6-O-methyl-11-desoxy-11-(R)-methylamino-erythromycin A 11,12-carbamate formate], the MIC (with E. faecalis ATCC 29212; in assay [4]; in the assay on S. pneumoniae SP030; against S. pyogenes 3565; in assay [2]; in assay [3]) was at most 1 µg/mL in each case.
Turning to `CC[C@H]1OC(=O)[C@H](C)[C@@H](O[C@H]2C[C@@](C)(OC)[C@@H](OCCCNCCOc3cc4c5c(c3)c(=O)c(C(=O)O)cn5CCC4)[C@H](C)O2)[C@H](C)[C@@H](O[C@@H]2O[C@H](C)CC(N(C)C)[C@H]2O)[C@](C)(OC)C[C@@H](C)C(=O)[C@@H](C)[C@H]2NC(=O)O[C@@]21C` (stereo partly drawn) [Example 22, 4″-O-{3-[2-(2-Carboxy-1-oxo-6,7-dihydro-1H,5H-pyrido[3,2,1-ij]quinolin-9-yloxy)-ethylamino]-propyl}-6-O-methyl-11-desoxy-11-(R)-amino-erythromycin A 11,12-carbamate formate], the MIC (against E. faecalis ATCC 29212; in assay [4]; against S. pneumoniae SP030; in the assay on S. pyogenes 3565; in assay [2]; in assay [3]) was at most 1 µg/mL throughout.
As to `CC[C@@H]1OC(=O)[C@H](C)[C@H](O[C@@H]2C[C@](C)(OC)[C@H](OCCCN(C)CCNc3cc4c(=O)c(C(=O)O)cn(C5CC5)c4cc3Cl)[C@H](C)O2)[C@@H](C)[C@H](O[C@H]2O[C@@H](C)C[C@@H](N(C)C)[C@H]2O)[C@](C)(OC)C[C@H](C)C(=O)[C@H](C)[C@H]2OC(=O)O[C@@]12C` [Example 14, 4″-O-(3-{[2-(3-Carboxy-7-chloro-1-cyclopropyl-4-oxo-1,4-dihydro-quinolin-6-ylamino)ethyl]-methylamino}-propyl)-6-O-methyl-erythromycin A 11,12-carbonate], the MIC is at most 4 µg/mL in the assay on H. influenzae ATCC 49247 (setting [5]), at most 4 µg/mL in assay [1], at most 1 µg/mL in assay [2] and at most 1 µg/mL in assay [3].
Regarding `CC[C@@H]1OC(=O)[C@H](C)[C@H](O[C@@H]2C[C@](C)(OC)[C@H](OCCNCCCc3ccc4c(c3)c(=O)c(C(=O)O)cn4CC)[C@H](C)O2)[C@@H](C)[C@H](O[C@H]2O[C@@H](C)C[C@@H](N(C)C)[C@H]2O)[C@](C)(O)C[C@H](C)CN(C)[C@@H](C)[C@H]2OC(=O)O[C@@]12C` [Example 16, 4″-O-{2-[3-(3-Carboxy-1-ethyl-4-oxo-1,4-dihydro-quinolin-6-yl)propylamino]ethyl}azithromycin 11,12-carbonate], the MIC (with H. influenzae ATCC 49247 (setting [5]); in assay [1]) was at most 4 µg/mL each time.
`CC[C@H]1OC(=O)[C@H](C)[C@@H](O[C@H]2C[C@@](C)(OC)[C@@H](OCCCNCCCc3cnc4c(c3)c(=O)c(C(=O)O)cn4CC)[C@H](C)O2)[C@H](C)[C@@H](O[C@@H]2O[C@H](C)C[C@H](N(C)C)[C@H]2O)[C@](C)(OC)C[C@@H](C)C(=O)[C@@H](C)[C@H]2NC(=O)O[C@@]21C` [Example 24, 4″-O-{3-[3-(3-Carboxy-1-ethyl-4-oxo-1,4-dihydro-6-[1,8]naphthryidinyl)-propylamino]-propyl}-6-O-methyl-11-desoxy-11-(R)-amino-erythromycin A 11,12-carbamate formate]: the MIC in assay [2] and in assay [3] was at most 1 µg/mL throughout.
Take `CC[C@@H]1OC(=O)[C@H](C)[C@H](O[C@@H]2C[C@](C)(OC)[C@H](OCCCNCCCc3ccc4c(c3)c(=O)c(C(=O)O)cn4CC)[C@H](C)O2)[C@@H](C)[C@H](O[C@H]2O[C@@H](C)C[C@@H](N(C)C)[C@H]2O)[C@](C)(OC)C[C@H](C)C(=O)[C@H](C)[C@H](O)[C@@]1(C)O` [Example 5, 4″-O-{3-[3-(3-Carboxy-1-ethyl-4-oxo-1,4-dihydro-quinolin-6-yl)-propylamino]-propyl}-6-O-methyl-erythromycin A bisformate]: the MIC (in the assay on E. faecalis ATCC 29212; in assay [4]; against S. pneumoniae SP030; with S. pyogenes 3565) was at most 1 µg/mL each time.
